# Results as given in US7232690B1, “Method and device for detecting and isolating pharmacological compounds being contained in substance mixtures” (LTS Lohmann Therapie-Systeme AG, priority 1999, dated 2007).
# Molecular target: β2-adrenoreceptor (Homo sapiens, UniProt P07550)
# Test: Ultrafiltration target-binding test of extract of taraxacum with β2-adrenoreceptor membrane preparation (Example 3)
# [1] = Sample 351, no receptor, extract 1.5 mg (7.5 g/l)
# [2] = Sample 355, receptor 1.04 pmol (5.2 nmol/l), extract 1.5 pmol (7.5 nmol/l)
# [3] = Sample 356, receptor 1.04 pmol (5.2 nmol/l), extract 1.5 pmol (7.5 nmol/l)
# [4] = Sample 360, no receptor, extract 0.3 mg (1.5 g/l)
# [5] = Sample 361, receptor 1.04 pmol (5.2 nmol/l), extract 0.3 mg (1.5 g/l)
# [6] = Sample 362, no receptor, extract 0.6 mg (3 g/l)
# [7] = Sample 363, receptor 1.04 pmol (5.2 nmol/l), extract 0.6 mg (3 g/l)
# [8] = Sample 364, no receptor, extract 1.0 mg (5.0 g/l)
# [9] = Sample 365, receptor 1.04 pmol (5.2 nmol/l), extract 1.0 mg (5.0 g/l)
# [10] = Sample 366, receptor 1.04 pmol (5.2 nmol/l), extract 1.5 mg (7.5 g/l)
# [11] = Sample 367, receptor 1.04 pmol (5.2 nmol/l), extract 1.5 mg (7.5 g/l)
# [12] = Sample 369, receptor 1.04 pmol (5.2 nmol/l), extract 1.5 mg (7.5 g/l)
# [13] = Sample 373, receptor 1.04 pmol (5.2 nmol/l), extract 1.5 mg (7.5 g/l)
# [14] = Sample 374, receptor 0.52 pmol (2.6 nmol/l), extract 1.5 mg (7.5 g/l)
# [15] = Sample 375, receptor 0.26 pmol (1.3 nmol/l), extract 1.5 mg (7.5 g/l)
# Experimental: Substance used for the assays: • a) extr. taraxaci spir. sicc.
# In the assays, the extract of taraxacum and the membrane preparation were combined in different stoichiometric ratios, dissolved in 200 μl of binding buffer (150 mM of NaCl, 50 mM of tris, pH 8.2 in water).
# The receptor-ligand binding was completed by 30-minute-long incubation of the mixture at 30-34° C. The solutions were then placed on a Microcon 10 centrifugal filter and centrifuged at 9981×g for 15 min or until dryness of the filter. […] After two washing steps with binding buffer, the complexes present on the filter were separated by treatment with 200 μl of TFA (1/49.5/49.5).
# The eluates from the following four filtration steps were centrifuged under vacuum until dryness, and the substances obtained were dissolved by means of ultrasound in 10 μl of the mobile phase of the HPLC (cf. Example 1), shortly before LC analysis.
# Chain of β2-adrenoreceptor (P07550 whole entry): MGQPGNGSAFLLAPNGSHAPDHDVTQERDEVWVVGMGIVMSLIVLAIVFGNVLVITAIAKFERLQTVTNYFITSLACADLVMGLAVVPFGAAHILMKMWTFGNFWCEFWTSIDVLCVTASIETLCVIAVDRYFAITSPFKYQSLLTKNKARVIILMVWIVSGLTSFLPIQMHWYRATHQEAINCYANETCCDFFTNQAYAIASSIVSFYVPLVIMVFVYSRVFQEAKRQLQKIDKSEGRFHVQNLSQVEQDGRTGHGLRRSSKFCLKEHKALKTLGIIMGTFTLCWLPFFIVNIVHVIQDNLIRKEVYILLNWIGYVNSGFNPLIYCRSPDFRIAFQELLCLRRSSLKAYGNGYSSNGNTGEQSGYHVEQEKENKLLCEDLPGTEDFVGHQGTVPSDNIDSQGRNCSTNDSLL
smiles,measurement,setting,value
"O=C(/C=C/c1ccc(O)c(O)c1)OC(C(=O)O)C(O)C(=O)O (stereo not drawn) [Substance L3, trans-caftarinic acid]",1st Wash,[1],51.0 nmol/L
same,2nd Wash,[1],8.0 nmol/L
same,Filtrate,[1],740.3 nmol/L
same,Liberation,[1],11.9 nmol/L
same,1st Wash,[2],88.8 nmol/L
same,2nd Wash,[2],12.9 nmol/L
same,Filtrate,[2],353.5 nmol/L
same,Liberation,[2],15.8 nmol/L
same,1st Wash,[3],79.0 nmol/L
same,2nd Wash,[3],9.9 nmol/L
same,Filtrate,[3],961.9 nmol/L
same,Liberation,[3],26.3 nmol/L
same,1st Wash,[4],22.7 nmol/L
same,2nd Wash,[4],0 nmol/L
same,Filtrate,[4],411.5 nmol/L
same,Liberation,[4],8.1 nmol/L
same,1st Wash,[5],16.5 nmol/L
same,2nd Wash,[5],29.6 nmol/L
same,Filtrate,[5],537.0 nmol/L
same,Liberation,[5],11.2 nmol/L
same,1st Wash,[6],20.5 nmol/L
same,2nd Wash,[6],5.6 nmol/L
same,Filtrate,[6],650.1 nmol/L
same,Liberation,[6],3.2 nmol/L
same,1st Wash,[7],54.4 nmol/L
same,2nd Wash,[7],0 nmol/L
same,Filtrate,[7],736.9 nmol/L
same,Liberation,[7],8.7 nmol/L
same,1st Wash,[8],36.9 nmol/L
same,2nd Wash,[8],3.0 nmol/L
same,Filtrate,[8],1034.4 nmol/L
same,Liberation,[8],5.3 nmol/L
same,1st Wash,[9],51.7 nmol/L
same,2nd Wash,[9],8.6 nmol/L
same,Filtrate,[9],1221.4 nmol/L
same,Liberation,[9],9.8 nmol/L
same,1st Wash,[10],102.8 nmol/L
same,2nd Wash,[10],2.3 nmol/L
same,Filtrate,[10],2088.5 nmol/L
same,Liberation,[10],7.6 nmol/L
same,1st Wash,[11],46.2 nmol/L
same,2nd Wash,[11],15.6 nmol/L
same,Filtrate,[11],2310.8 nmol/L
same,Liberation,[11],6.3 nmol/L
same,1st Wash,[12],90.8 nmol/L
same,2nd Wash,[12],41.8 nmol/L
same,Filtrate,[12],2381.4 nmol/L
same,Liberation,[12],7.0 nmol/L
same,1st Wash,[13],91.7 nmol/L
same,2nd Wash,[13],26.6 nmol/L
same,Filtrate,[13],2450.0 nmol/L
same,Liberation,[13],36.2 nmol/L
same,1st Wash,[14],44.0 nmol/L
same,2nd Wash,[14],7.4 nmol/L
same,Filtrate,[14],2593.2 nmol/L
same,Liberation,[14],25.3 nmol/L
same,1st Wash,[15],39.7 nmol/L
same,2nd Wash,[15],19.6 nmol/L
same,Filtrate,[15],2252.1 nmol/L
same,Liberation,[15],19.0 nmol/L
"COc1cc(/C=C/C(=O)OC(C(=O)O)C(OC(=O)/C=C/c2ccc(O)c(OC)c2)C(=O)O)ccc1O (stereo not drawn) [Substance L7, trans-diferoyl-tartaric acid ester]",1st Wash,[1],748.2 nmol/L
same,2nd Wash,[1],145.5 nmol/L
same,Filtrate,[1],3802.1 nmol/L
same,Liberation,[1],22.7 nmol/L
same,1st Wash,[2],909.9 nmol/L
same,2nd Wash,[2],180.4 nmol/L
same,Filtrate,[2],1539.6 nmol/L
same,Liberation,[2],214.5 nmol/L
same,1st Wash,[3],1117.4 nmol/L
same,2nd Wash,[3],295.9 nmol/L
same,Filtrate,[3],2183.1 nmol/L
same,Liberation,[3],510.7 nmol/L
same,1st Wash,[4],129.6 nmol/L
same,2nd Wash,[4],6.6 nmol/L
same,Filtrate,[4],1268.8 nmol/L
same,Liberation,[4],8.6 nmol/L
same,1st Wash,[5],129.6 nmol/L
same,2nd Wash,[5],6.6 nmol/L
same,Filtrate,[5],1268.8 nmol/L
same,Liberation,[5],8.6 nmol/L
same,1st Wash,[6],176.5 nmol/L
same,2nd Wash,[6],33.7 nmol/L
same,Filtrate,[6],1423.2 nmol/L
same,Liberation,[6],7.5 nmol/L
same,1st Wash,[7],76.4 nmol/L
same,2nd Wash,[7],104.2 nmol/L
same,Filtrate,[7],1740.7 nmol/L
same,Liberation,[7],16.9 nmol/L
same,1st Wash,[8],92.7 nmol/L
same,2nd Wash,[8],30.1 nmol/L
same,Filtrate,[8],1829.6 nmol/L
same,Liberation,[8],89.6 nmol/L
same,1st Wash,[9],74.0 nmol/L
same,2nd Wash,[9],11.2 nmol/L
same,Filtrate,[9],2746.8 nmol/L
same,Liberation,[9],111.9 nmol/L
same,1st Wash,[10],1425.3 nmol/L
same,2nd Wash,[10],213.1 nmol/L
same,Filtrate,[10],4261.6 nmol/L
same,Liberation,[10],168.2 nmol/L
same,1st Wash,[11],1509.0 nmol/L
same,2nd Wash,[11],199.2 nmol/L
same,Filtrate,[11],6243.7 nmol/L
same,Liberation,[11],232.9 nmol/L
same,1st Wash,[12],986.8 nmol/L
same,2nd Wash,[12],221.7 nmol/L
same,Filtrate,[12],3505.8 nmol/L
same,Liberation,[12],378.7 nmol/L
same,1st Wash,[13],1176.5 nmol/L
same,2nd Wash,[13],285.4 nmol/L
same,Filtrate,[13],4900.2 nmol/L
same,Liberation,[13],847.8 nmol/L
same,1st Wash,[14],627.7 nmol/L
same,2nd Wash,[14],200.9 nmol/L
same,Filtrate,[14],5661.6 nmol/L
same,Liberation,[14],538.8 nmol/L
same,1st Wash,[15],631.3 nmol/L
same,2nd Wash,[15],112.3 nmol/L
same,Filtrate,[15],4921.4 nmol/L
same,Liberation,[15],154.4 nmol/L
